# Data published in a melting point compilation (Tetko et al.).
row,SMILES,melting point [°C]
1,O=C(O)c1ccc(-c2ccccc2)s1,188 to 192
2,CC12Cc3nonc3CC1CCC1C2CCC2(C)C1CCC2(C)O (configuration not stated),152
3,CNP(=O)(NC)Oc1ccccc1,102
4,C[C@@]12CC[C@@H]3[C@H](CC[C@]4(C)C(=O)CC[C@]34C)[C@@]1(C)CCC(=O)C2,184 to 186
5,CC(C)NCC1CCc2cc(CO)c([N+](=O)[O-])cc2N1 (configuration not stated),148
6,Cn1nc(C(=O)Cl)cc1-c1cccs1,48 to 49
7,O=C(O)c1ccc(N2CCCC2)cc1,230
8,Cc1n[nH]c(=S)n(N)c1=O,183 to 184
9,COc1ccc(N2C(=O)C3ON=C(C(=O)c4ccccc4)C3C2=O)cc1 (configuration not stated),166
10,COc1ccc([C@@H](O)[C@@H](CO)Oc2c(OC)cccc2OC)cc1OC,111
11,C1CN2CCN3CCN1C23,-14.7
12,O=C(NCCCCCCCCNC(=O)C(Cl)Cl)C(Cl)Cl,118 to 120
13,O=C(O)c1cc(-c2ccccc2)on1,192 to 200
14,COc1ccc(-c2cc(-c3ccc(OC)cc3)cc(-c3ccc(OC)cc3)c2)cc1,143 to 146
15,Cc1cccc(N(C)C(=S)Oc2ccc3c(c2)C2CCC3C2)c1 (configuration not stated),93
16,N#Cc1ccc(Cl)c(C(F)(F)F)c1,66
17,Clc1cncc(Cl)c1Cl,72
18,CC1(O)C(=O)CC2CC1C2(C)C (configuration not stated),38.5
19,CC(C)(C)c1ccc(N)c(N)c1,98 to 100
20,O=C(O)COc1cccc(CBr)c1,126
21,Cn1c(S)nnc1-c1cccs1,153 to 156
22,CCCC(=O)OC(=O)CCC,-73
23,C=CCNC(=S)NN,93 to 96

row,SMILES,melting point [°C]
1,Sc1nc(-c2ccccc2)c(-c2ccccc2)[nH]1,300
2,O=C1C=CC(=O)C1,37
3,CCC=C(C)C,-135
4,OCc1nc2ccccc2s1,98
5,CC(CC(N)=O)n1nc2ccccc2n1 (configuration not stated),152
6,c1ccc(Cc2c3ccccc3c(Cc3ccccc3)c3ccccc23)cc1,246
7,CC1=C(c2ccccc2)C(=O)N(C(C)(C)c2cc(Cl)cc(Cl)c2)CO1,150
8,Nc1ccc2cc(S(=O)(=O)O)cc(S(=O)(=O)O)c2c1,300
9,COc1cc(CCNC(=O)CC(C)C)ccc1OCc1ccccc1,114
10,COC(=O)CC1C(=O)NC(C)=C1C(=O)OC (configuration not stated),93 to 94
11,NS(=O)(=O)c1cc(Cl)ccc1F,135
12,Brc1cccc(-n2cccc2)c1,63 to 64
13,O=C(O)C1c2ccccc2C(=O)N(Cc2ccc(F)cc2)C1c1cccnc1 (configuration not stated),250
14,Cc1ccc(NC(=O)CC2C(=O)C3(C)CCC2C3(C)C)cc1 (configuration not stated),158
15,Cc1cc(Cl)cc2c(O)c(C(=O)O)cnc12,303 to 308
16,NCC1OC(OC2C(N)CC(N)C(O)C2OC2OC(CO)C(O)C2O)C(N)C(O)C1O (configuration not stated),194
17,CC=C(C)C(=O)O,64.5
18,FC(F)(F)C(F)(F)C(F)(F)C(F)(F)C(F)(F)C(F)(F)I,-45
19,COC(=O)c1ccc(C(=O)OC)c(F)c1,82
20,O=[N+]([O-])c1ccc2c(c1)CCN2,93
21,CCC(=O)c1ccc2ccccc2c1,60
22,NS(=O)(=O)c1ccc(C(F)(F)F)cc1,180
23,O=C(O)COc1cccc([N+](=O)[O-])c1,156 to 161

row,SMILES,melting point [°C]
1,CC(=O)c1c(O)cccc1OCCC(C)C,25 to 27
2,Cc1cccc(/N=N/c2c(C)[nH]c(=S)c(C#N)c2C)c1C,259
3,Nc1cn[nH]c1,81
4,CC1(C)C(=S)NC(c2ccccc2)N1O (configuration not stated),193 to 195
5,C#CCCCCCCCC#C,-17
6,CC(=O)Oc1ccc(O)cc1,62
7,CCCCCOc1ccc(C(=O)O)cc1,123 to 127
8,c1ccc(COc2ccc3cc[nH]c3c2)cc1,115
9,CC1(C)C(Br)=C(Br)C(=O)C1Br (configuration not stated),87
10,CON=C(C(=O)Sc1nc2ccccc2s1)c1csc(N)n1,126 to 130
11,Oc1ccc(C2CCCCC2)cc1,133
12,CC(C)NCC(O)COc1cccc2c1C=CC2 (configuration not stated),88.5
13,COC(=O)C(=O)C1CCc2cc(OC)ccc2C1=O (configuration not stated),71
14,BrCc1ccc(-n2cccn2)cc1,81 to 83
15,CC1OC(n2ccc(NC(=O)c3ccc(NC(=O)C(C)(N)CO)cc3)nc2=O)CCC1OC1OC(C)C(N(C)C)C(O)C1O (configuration not stated),167
16,O=Cc1cnc2ccccc2n1,108 to 111
17,Nc1ccc(Cl)c(F)c1,60
18,Cc1cc(I)cnc1Br,45
19,Cc1nn(-c2ccccc2)c(Cl)c1C=O,144 to 148
20,CCOC(=O)C(C)(C)C1(O)CCC2(C)C(CCC3C2CCC2(C)C(OCc4ccccc4)CCC32)C1 (configuration not stated),147
21,NNC(=O)N1N=C(c2ccccc2)CCC1=O,166 to 168
22,N#CCc1nc(-c2ccc(Cl)c(Cl)c2)cs1,106 to 107
23,N[C@@H]1CCCC[C@H]1N,40 to 45

row,SMILES,melting point [°C]
1,COc1cscc1C(=O)O,105 to 108
2,CC1(C)N[C@H](C(=O)O)Cc2c1[nH]c1ccccc21,227 to 228
3,FC(F)(F)c1nn(CN2CCN(Cn3nc(C(F)(F)F)n(N=Cc4cccs4)c3=S)CC2)c(=S)n1N=Cc1cccs1,187
4,CSc1cc(-c2ccc(Oc3ccccc3)cc2)n[nH]1,97 to 98.5
5,N#CC1=C(N)Oc2c(c(C(F)(F)F)nn2-c2ccccc2)C1c1ccccc1 (configuration not stated),191
6,Clc1ccc(O[Si]23OCCN(CCO2)CCO3)cc1,166
7,Cc1nc(/C(C#N)=C/c2ccc(F)cc2)sc1/N=N/c1c(Br)cc(Br)cc1Br,170
8,COc1ccc(-c2nn3c(C)nnc3s2)cc1,177
9,Oc1ccccc1-c1ccccc1O,109
10,CCOc1cc(OP(=S)(OC)OC)nc(CC)n1,-3.35
11,Cc1ccc(C=NO)cc1,126
12,O=S(=O)(Cl)c1ccsc1,44 to 45
13,CCOC(=O)C#Cc1cccc(C#CC(=O)OCC)c1,56
14,Cc1nc(-c2ccc(S(=O)(=O)N3CCOCC3)cc2)c(-c2ccc(S(=O)(=O)N3CCOCC3)cc2)o1,245 to 248
15,CC12CCC(CC1)C2(C)C,158
16,O=C1NN=C(C(F)(F)F)C1=NNc1ccc(Cl)cc1,215
17,CCCCOc1ccc(-c2nnc3n2NC(c2ccco2)S3)cc1 (configuration not stated),127
18,CCC1CN2CCC3(C(=O)Nc4ccccc43)C2CC1C(=COC)C(=O)OC (configuration not stated),216
19,Cc1cc2ccccc2s1,52
20,COc1cccc(CO)c1O,59 to 63
21,O=C1OC(Cl)c2ccccc21 (configuration not stated),60
22,N#Cc1c[nH]nc1N,175
23,CN1CCN(C(=O)OC2c3nccnc3C(=O)N2c2ccc(Cl)cn2)CC1 (configuration not stated),178
